Tested on: NOS1
Assay: Percentage of NO neurons in treated cultures by flow cytometry for NOS1
Assay type: cell-based, human
Details: flow cytometry for NOS1, compared to no treatment
Experimental: NO neurons quantified using flow cytometry for NOS1.
Option 1 (for 3-D Culture): • 30. On day 15, ENC spheroids are gathered in the center of the wells using a swirling motion and neural crest medium is removed using a P1000 micropipette in slow circular motion, avoiding the free-floating spheroids. • 31. Spheroids are fed with the same volume of ENC medium containing PP121 (1-5 μM), GDNF (10 ng/ml), ascorbic acid (100 μM), N2 supplement (10 μl/ml), B27 supplement (20 μl/ml), glutagro (10 μl/ml), and MEM NEAAs (10 μl/ml) in neurobasal medium. • 32. Cells are fed with ENC every other day until day 30-40, after which, feeding frequency can be reduced to once or twice a week but with a higher volume of medium.
Option 2 (for 2-D Culture): • 30. On day 15, ENC spheroids are gathered in the center of the wells using a swirling motion and neural crest medium is removed using a P1000 micropipette in slow circular motion, avoiding the free-floating spheroids. • 31. After washing the spheroids with PBS, accutase is added and plates are incubated for 30 minutes at 37° C. to dissociate the spheroids. • 32. Then, remaining spheroids are broken by pipetting ENC medium. • 33. ENC contains PP121 (1-5 μM), GDNF (10 ng/ml), ascorbic acid (100 μM), N2 supplement (10 μl/ml), B27 supplement (20 μl/ml), glutagro (10 μl/ml), and MEM NEAAs (10 μl/ml) in neurobasal medium. • 34. […]

Compound	percentage of NO neurons (NOS1 induction)
Nc1ncnc2c1c(-c1cnc3[nH]ccc3c1)nn2C1CCCC1 [PP121]	enhances NOS1 induction efficiency
PDGF	reduced the percentage of NO neurons
